Measured values as given in PMC3414448 (PLoS ONE, 2012).
Where “and” joins values, the source holds several entries; their conditions need not be identical. Equal values may be shown once. Read-outs that look alike come from different tables or passages of the source.

Assays:
[1] = system: undifferentiated Caco-2 cells
[2] = system: differentiated Caco-2 cells
[3] = system: 8-hydroxydeoxyguanosine (8-OHdG); experiment: cells; details: Homo sapiens, Caco-2, 24 h, read-out: EC50 8-OHdG nuclear staining
[4] = system: phosphorylated histone variant H2AX (γ-H2AX); experiment: cells; details: Homo sapiens, Caco-2, 24 h, read-out: EC50 γ-H2AX nuclear staining
[5] = system: 8-hydroxydeoxyguanosine (8-OHdG)
[6] = system: phosphorylated histone variant H2AX (γ-H2AX)
[7] = system: 8-hydroxydeoxyguanosine (8-OHdG); remark: listed apart in the source
[8] = system: phosphorylated histone variant H2AX (γ-H2AX); remark: listed apart in the source

CO[C@@]12[C@H](COC(N)=O)C3=C(C(=O)C(C)=C(N)C3=O)N1C[C@@H]1N[C@@H]12 [MMC, mitomycin C]
Cell Count (%Control) (CHO-K1 cells): 98.56 %Control and 101.70 %Control and 91.11 %Control | Cell Count (%Control) (A549 cells): 98.78 %Control and 95.22 %Control and 78.78 %Control

C=C(C)[C@H]1Cc2c(ccc3c2O[C@@H]2COc4cc(OC)c(OC)cc4[C@@H]2C3=O)O1 [Rotenone, rotenone]
concentration at which nuclear area was significantly increased ([1]; undifferentiated Caco-2, 24 hr, p<0.05): all rotenone concentrations | cytotoxicity in differentiated cells [2]: Neither rotenone nor peroxide induced cytotoxicity | EC50 [3]: 0.99 µM | EC50 [4]: 1.1 µM

OO [Peroxide, hydrogen peroxide]
concentration at which nuclear area was significantly increased [1]: ≥ 100 µM | cytotoxicity in differentiated cells [2]: Neither rotenone nor peroxide induced cytotoxicity | concentration at which 8-OHdG staining was significantly increased [5]: not statistically significant | EC50 ([5]; read-out: EC50 8-OHdG nuclear staining): 5.5 µM | concentration at which γ-H2AX staining was significantly increased [6]: 300 µM | γ-H2AX staining at non-cytotoxic concentrations [6]: increased γ-H2AX staining at the highest non-cytotoxic concentration (100 µM) | concentration at which 8-OHdG was significantly increased [7]: 100 µM | concentration at which γ-H2AX staining was increased [8]: 1000 µM
